Assay results: patent US8173689B2 (Novartis AG, priority 2006, dated 2012)
Where two headings read alike, the source gives them in different places.

Legend:
[1] = target: T1, cytoplasmic domain of the human CSF-1R (Homo sapiens, UniProt P07333); experiment: In vitro kinase assay for colony stimulating factor-1 receptor (AlphaScreen); assay type: biochemical; conditions: read-out: CSF-1R percent inhibition
T1 construct: Recombinant protein corresponding to the cytoplasmic domain of the human CSF-1R; purchased Invitrogen Corporation, Carlsbad, Calif; PV3249
T1 sequence (P07333 539-972 limits assumed): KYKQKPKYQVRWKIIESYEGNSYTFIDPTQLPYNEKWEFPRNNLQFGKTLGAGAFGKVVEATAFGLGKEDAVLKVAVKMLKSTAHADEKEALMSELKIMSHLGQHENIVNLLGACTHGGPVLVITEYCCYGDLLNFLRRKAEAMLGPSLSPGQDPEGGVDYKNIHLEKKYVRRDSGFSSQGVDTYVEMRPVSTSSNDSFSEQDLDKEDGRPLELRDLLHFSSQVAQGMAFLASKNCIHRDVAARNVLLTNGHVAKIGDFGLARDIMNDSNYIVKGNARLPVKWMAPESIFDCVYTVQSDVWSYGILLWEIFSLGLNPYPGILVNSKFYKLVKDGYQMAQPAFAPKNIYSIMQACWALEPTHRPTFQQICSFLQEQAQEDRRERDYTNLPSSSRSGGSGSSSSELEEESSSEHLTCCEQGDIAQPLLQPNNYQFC
Procedure, shortened: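 At a low ATP level of 1 μM, phosphate transfer by the cytoplasmic-domain kinase (4 nM) was quantified with an AlphaScreen anti-phosphotyrosine bead pair.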

[2] = target: T2, full-length human CSF-1R receptor (Homo sapiens, UniProt P07333); experiment: In vitro inhibition of CSF-1R receptor tyrosine phosphorylation in transfected HEK293H cells stimulated with MCSF; assay type: cell-based; conditions: HEK293-H, tested at about 1 μM; HEK293H cells; read-out: pCSF1R percent inhibition
T2 construct: transfected with the full-length human CSF-1R receptor cloned in house; expressed in transfected cells; host or cells: HEK293H (Invitrogen Cat. #11631017)
Method: The lysate was then transferred to total CSF-1R antibody coated 96-well plates that had already been blocked with 3% Blocker A from Mesoscale discovery (MSD) for 2 hours and washed afterwards. Lysates were incubated overnight at 4° C. and the plates were then washed 4× with MSD Tris Wash Buffer. […] The plates were read on the Sector 6000 instrument (MSD). Raw data was imported in Abase and EC50s calculated with XL-fit data analysis software.

[3] = system: MNFS60 (murine AML cells); experiment: Cell viability assay in MCSF dependent MNFS60 cells (Cell Titer Glo); assay type: cell-based; conditions: Mus musculus, tested at about 1 μM, read-out: M-NFS-60 CP percent inhibition
Procedure, shortened: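 3-fold DMSO dilution series (500× stocks); MCSF 10 ng/ml final; 72 hrs, 37° C., 5% CO2; CellTiter-Glo read-out; n=3; EC50 fitted.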

kinase domain of cKIT = target: T3, kinase domain of cKIT (Homo sapiens, UniProt P10721); experiment: Inhibition of cKIT kinase signaling in an in vitro biochemical assay (alphascreen); conditions: read-out: cKit percent inhibition
T3 construct: The kinase domain of cKIT was assayed in 50 mM Hepes; purchased Upstate 14-559

kinase domain of PDGFRβ = target: T4, kinase domain of PDGFRβ (Homo sapiens, UniProt P09619); experiment: Inhibition of PDGFRb kinase signaling in an in vitro biochemical assay (alphascreen); conditions: read-out: PDGFRβ percent inhibition
T4 construct: The kinase domain of PDGFRβ was assayed in 50 mM Hepes; purchased Invitrogen P3082

[4] = tested at about 1 μM, compounds of Table 3

T3 sequence (P10721 589-937 limits assumed): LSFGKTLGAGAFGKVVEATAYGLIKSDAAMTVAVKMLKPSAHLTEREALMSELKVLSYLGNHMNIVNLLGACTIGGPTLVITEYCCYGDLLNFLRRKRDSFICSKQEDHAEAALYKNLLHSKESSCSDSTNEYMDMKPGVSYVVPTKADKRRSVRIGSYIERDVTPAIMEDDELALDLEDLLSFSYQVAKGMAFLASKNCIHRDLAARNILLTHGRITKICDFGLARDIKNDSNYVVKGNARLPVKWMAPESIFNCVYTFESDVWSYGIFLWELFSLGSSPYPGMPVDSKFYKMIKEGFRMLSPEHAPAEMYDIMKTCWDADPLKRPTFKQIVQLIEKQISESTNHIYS
T2 sequence (P07333 20-972): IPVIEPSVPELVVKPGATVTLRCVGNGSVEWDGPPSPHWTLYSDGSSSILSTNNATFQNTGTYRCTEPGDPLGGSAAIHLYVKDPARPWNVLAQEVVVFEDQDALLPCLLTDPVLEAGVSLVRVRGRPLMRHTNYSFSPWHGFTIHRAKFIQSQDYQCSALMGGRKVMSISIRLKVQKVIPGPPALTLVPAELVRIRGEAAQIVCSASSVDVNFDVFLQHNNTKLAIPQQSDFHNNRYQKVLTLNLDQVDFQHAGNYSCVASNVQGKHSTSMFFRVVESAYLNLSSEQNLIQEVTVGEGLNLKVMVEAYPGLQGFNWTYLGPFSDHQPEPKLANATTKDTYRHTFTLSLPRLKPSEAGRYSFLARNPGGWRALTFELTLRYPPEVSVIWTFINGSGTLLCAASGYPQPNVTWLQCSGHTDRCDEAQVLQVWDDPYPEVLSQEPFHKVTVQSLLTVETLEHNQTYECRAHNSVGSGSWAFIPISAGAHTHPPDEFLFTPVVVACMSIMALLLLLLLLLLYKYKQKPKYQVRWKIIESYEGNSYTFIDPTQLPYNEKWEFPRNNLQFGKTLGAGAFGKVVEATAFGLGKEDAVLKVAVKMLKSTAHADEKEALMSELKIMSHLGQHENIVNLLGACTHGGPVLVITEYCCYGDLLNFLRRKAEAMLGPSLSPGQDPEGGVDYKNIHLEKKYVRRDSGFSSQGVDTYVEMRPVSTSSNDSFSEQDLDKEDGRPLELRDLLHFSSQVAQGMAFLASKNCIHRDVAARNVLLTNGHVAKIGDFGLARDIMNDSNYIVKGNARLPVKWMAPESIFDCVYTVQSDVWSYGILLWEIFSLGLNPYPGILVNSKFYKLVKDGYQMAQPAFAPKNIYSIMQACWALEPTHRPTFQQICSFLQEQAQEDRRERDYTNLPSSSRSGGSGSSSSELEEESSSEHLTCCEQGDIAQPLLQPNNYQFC
T4 sequence (P09619 600-962 limits assumed): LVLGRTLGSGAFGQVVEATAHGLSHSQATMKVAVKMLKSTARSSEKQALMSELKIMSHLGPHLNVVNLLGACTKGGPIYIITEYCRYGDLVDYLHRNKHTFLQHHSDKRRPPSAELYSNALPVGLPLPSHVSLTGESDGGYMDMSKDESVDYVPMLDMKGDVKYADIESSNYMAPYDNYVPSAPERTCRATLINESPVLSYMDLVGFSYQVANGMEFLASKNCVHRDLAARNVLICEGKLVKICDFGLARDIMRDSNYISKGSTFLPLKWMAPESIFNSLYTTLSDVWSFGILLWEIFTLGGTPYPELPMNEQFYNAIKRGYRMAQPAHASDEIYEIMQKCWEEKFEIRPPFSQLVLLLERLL

With `CNC(=O)c1cc(Oc2ccc3nc(NCc4ccc(Cl)cc4Cl)oc3c2)ccn1` [Compound 9, 4-[2-(2,4-Dichloro-benzylamino)-benzooxazol-6-yloxy]-pyridin-2-carboxylic acid methylamide] the inhibition at 1 µM ([1]; tested at about 1 μM) was 99%, the inhibition at 1 µM [2] was 75% and the inhibition at 1 µM ([3]; MNFS60 cells) was 58%.
In the case of `CNC(=O)c1cc(Oc2ccc3nc(N[C@@H](C)c4ccccc4)oc3c2)ccn1` [Compound 7, 4-[2-((S)-1-Phenyl-ethylamino)-benzooxazol-6-yloxy]-pyridin-2-carboxylic acid methylamide], the inhibition at 1 µM ([1]; tested at about 1 μM) was 94%, the inhibition at 1 µM [2] was 21% and the inhibition at 1 µM ([3]; MNFS60 cells) was 17%.
With `CNC(=O)c1cc(Oc2ccc3nc(N[C@H]4CCCC[C@@H]4O)sc3c2)ccn1` [Compound 137, 4-[2-((1S,2S)-2-Hydroxy-cyclohexylamino)-benzothiazol-6-yloxy]-pyridine-2-carboxylic acid methylamide] the inhibition at 1 µM ([1]; tested at about 1 μM) was 100%, the inhibition at 1 µM [2] was 98% and the inhibition at 1 µM ([3]; MNFS60 cells) was 100%.
In the case of `COc1cc2nccc(Oc3ccc4nc(Nc5ccc6c(c5)OCCO6)oc4c3)c2cc1OC` [Compound 4, (2,3-Dihydro-benzo[1,4]dioxin-6-yl)-[6-(6,7-dimethoxy-quinolin-4-yloxy)-benzooxazol-2-yl]-amine], the inhibition at 1 µM ([1]; tested at about 1 μM) was 100%, the inhibition at 1 µM [2] was 91% and the inhibition at 1 µM ([3]; MNFS60 cells) was 100%.
In the case of `CNC(=O)c1cc(Oc2ccc3nc(NCC(O)COc4ccccc4)sc3c2)ccn1` (stereo not drawn) [Compound 124], the inhibition at 1 µM [1, 4] was 99%, the inhibition at 1 µM (kinase domain of cKIT; [4]) was 0% and the inhibition at 1 µM (kinase domain of PDGFRβ; [4]) was 10%. The inhibition at 1 µM ([3]; compounds of Table 3) was 18%.
Work on `CNC(=O)c1cc(Oc2ccc3nc(NCc4ccncc4)oc3c2)ccn1` [Compound 57, 4-{2-[(Pyridin-4-ylmethyl)-amino]-benzooxazol-6-yloxy}-pyridine-2-carboxylic acid methylamide] yielded an inhibition at 1 µM ([1]; tested at about 1 μM) of 97%, an inhibition at 1 µM (kinase domain of cKIT; tested at about 1 μM) of 35% and an inhibition at 1 µM (kinase domain of PDGFRβ; tested at about 1 μM) of 3%. For the same molecule, the inhibition at 1 µM ([3]; MNFS60 cells) was 35%.
`CNC(=O)c1cc(Oc2ccc3nc(N[C@H](C)c4ccccc4)oc3c2)ccn1` [Compound 2, 4-[2-((R)-1-Phenyl-ethylamino)-benzooxazol-6-yloxy]-pyridine-2-carboxylic acid methylamide] gave an inhibition at 1 µM ([1]; tested at about 1 μM) of 100%, an inhibition at 1 µM [2] of 80% and an inhibition at 1 µM ([3]; MNFS60 cells) of 63%.
Molecule `O[C@@H]1CCCC[C@H]1Nc1nc2ccc(Oc3ccnc(N4CCOCC4)c3)cc2s1` [Cmpd 175, (1R,2R)-2-(6-(2-morpholinopyridin-4-yloxy)benzo[d]thiazol-2-ylamino)cyclohexanol] has an inhibition at 1 µM [1, 4] of 100%, an inhibition at 1 µM (kinase domain of cKIT; [4]) of 11% and an inhibition at 1 µM (kinase domain of PDGFRβ; [4]) of 1%. For the same molecule, the inhibition at 1 µM ([3]; compounds of Table 3) was 17%.
`CNC(=O)c1cc(Oc2ccc3nc(Nc4ccc5c(c4)OCCO5)oc3c2)ccn1` [Compound 5, 4-[2-(2,3-Dihydro-benzo-[1,4]dioxin-6-ylamino)-benzooxazol-6-yloxy]-pyridin-2-carboxylic acid methylamide] showed an inhibition at 1 µM ([1]; tested at about 1 μM) of 99%, an inhibition at 1 µM [2] of 93% and an inhibition at 1 µM ([3]; MNFS60 cells) of 100%.
For `C[C@H](Nc1nc2ccc(Oc3ccnc(-c4ccnn4C)c3)cc2s1)C1CCCCC1` [Example 277, (S)-N-(1-cyclohexylethyl)-6-(2-(1-methyl-1H-pyrazol-5-yl)pyridin-4-yloxy)benzo[d]thiazol-2-amine], the inhibition at 1 µM [1, 4] was 100%, the inhibition at 1 µM (kinase domain of cKIT; [4]) was 26% and the inhibition at 1 µM (kinase domain of PDGFRβ; [4]) was 5%. The inhibition at 1 µM ([3]; compounds of Table 3) was 24%.
Work on `CC(C)CCNc1nc2ccc(Oc3ccnc4ccccc34)cc2s1` [Example 253, N-isopentyl-6-(quinolin-4-yloxy)benzo[d]thiazol-2-amine] yielded an inhibition at 1 µM [1, 4] of 100%, an inhibition at 1 µM (kinase domain of cKIT; [4]) of 100% and an inhibition at 1 µM (kinase domain of PDGFRβ; [4]) of 6%. For the same molecule, the inhibition at 1 µM ([3]; compounds of Table 3) was 86%.
`Cc1cc(Oc2ccc3nc(NCC4CCCCC4)sc3c2)ccn1` [Example 202] gave an inhibition at 1 µM [1, 4] of 100%, an inhibition at 1 µM (kinase domain of cKIT; [4]) of 32% and an inhibition at 1 µM (kinase domain of PDGFRβ; [4]) of 19%. For the same molecule, the inhibition at 1 µM ([3]; compounds of Table 3) was 17%.
Molecule `CNC(=O)c1cc(Oc2ccc3nc(NCc4ccc(OC)c(OC)c4)sc3c2)ccn1` [Compound 151, 4-[2-(3,4-Dimethoxy-benzyl-amino)-benzothiazol-6-yloxy]-pyridine-2-carboxylic acid methylamide] has an inhibition at 1 µM ([1]; tested at about 1 μM) of 99%, an inhibition at 1 µM (kinase domain of cKIT; tested at about 1 μM) of 5% and an inhibition at 1 µM (kinase domain of PDGFRβ; tested at about 1 μM) of 0%. The inhibition at 1 µM ([3]; MNFS60 cells) was 26%.
Molecule `CNC(=O)c1cc(Oc2ccc3nc(NCc4c(Cl)cccc4Cl)oc3c2)ccn1` [Compound 76, 4-[2-(2,6-Dichloro-benzylamino)-benzooxazol-6-yloxy]-pyridine-2-carboxylic acid methylamide] has an inhibition at 1 µM ([1]; tested at about 1 μM) of 98%, an inhibition at 1 µM (kinase domain of cKIT; tested at about 1 μM) of 9% and an inhibition at 1 µM (kinase domain of PDGFRβ; tested at about 1 μM) of 0%. For the same molecule, the inhibition at 1 µM ([3]; MNFS60 cells) was 0%.
`O[C@@H]1CCCC[C@H]1Nc1nc2ccc(Oc3ccncc3-c3cn[nH]c3)cc2s1` [Example 188] showed an inhibition at 1 µM [1] of 100%, an inhibition at 1 µM (kinase domain of cKIT) of 55% and an inhibition at 1 µM (kinase domain of PDGFRβ) of 35%. It also gave an inhibition at 1 µM ([3]; compounds of Table 3) of 38%.
With `CNC(=O)c1cc(Oc2ccc3nc(NCc4ccc(F)cc4F)oc3c2)ccn1` [Compound 71, 4-[2-(2,4-Difluoro-benzylamino)-benzooxazol-6-yloxy]-pyridine-2-carboxylic acid methylamide] the inhibition at 1 µM ([1]; tested at about 1 μM) was 100%, the inhibition at 1 µM (kinase domain of cKIT; tested at about 1 μM) was 27% and the inhibition at 1 µM (kinase domain of PDGFRβ; tested at about 1 μM) was 0%. It also gave an inhibition at 1 µM ([3]; MNFS60 cells) of 11%.
`CNC(=O)c1cc(Oc2ccc3nc(NCc4ccccc4N(C)C)sc3c2)ccn1` [Compound 144, 4-[2-(2-Dimethylamino-benzylamino)-benzothiazol-6-yloxy]-pyridine-2-carboxylic acid methylamide] gave an inhibition at 1 µM ([1]; tested at about 1 μM) of 99%, an inhibition at 1 µM (kinase domain of cKIT; tested at about 1 μM) of 100% and an inhibition at 1 µM (kinase domain of PDGFRβ; tested at about 1 μM) of 100%. For the same molecule, the inhibition at 1 µM ([3]; MNFS60 cells) was 100%.
Work on `CNC(=O)c1cc(Oc2ccc3nc(NCC4CCCN(C(=O)NC(C)C)C4)sc3c2)ccn1` (stereo not drawn) [Example 337, 4-(2-((1-(isopropylcarbamoyl)piper-idin-3-yl)methylamino)benzo[d]thiazol-6-yloxy)-N-methylpicolinamide] yielded an inhibition at 1 µM ([1]; tested at about 1 μM) of 95%, an inhibition at 1 µM (kinase domain of cKIT; tested at about 1 μM) of 14% and an inhibition at 1 µM (kinase domain of PDGFRβ; tested at about 1 μM) of 0%. It also gave an inhibition at 1 µM ([3]; MCSF dependent MNFS60 cells) of 19%.
`CNC(=O)c1cc(Oc2ccc3nc(NCc4ccccc4Cl)oc3c2)ccn1` [Compound 8, 4-[2-(2-Chloro-benzylamino)-benzooxazol-6-yloxy]-pyridin-2-carboxylic acid methylamide] gave an inhibition at 1 µM ([1]; tested at about 1 μM) of 99%, an inhibition at 1 µM [2] of 92% and an inhibition at 1 µM ([3]; MNFS60 cells) of 60%.
For `CNC(=O)c1cc(Oc2ccc3nc(N[C@H]4CCC[C@H]4O)sc3c2)ccn1` [Example 322, 4-(2-((1S,2R)-2-hydroxycyclopentylamino)benzo[d]thiazol-6-yloxy)-N-methylpicolinamide], the inhibition at 1 µM ([1]; tested at about 1 μM) was 99%, the inhibition at 1 µM (kinase domain of cKIT; tested at about 1 μM) was 18% and the inhibition at 1 µM (kinase domain of PDGFRβ; tested at about 1 μM) was 11%. The inhibition at 1 µM ([3]; MCSF dependent MNFS60 cells) was 21%.
With `OC[C@@H](Nc1nc2ccc(Oc3ccnc4ccccc34)cc2s1)c1ccccc1` [Example 235, (S)-2-phenyl-2-(6-(quinolin-4-yloxy)benzo[d]thiazol-2-ylamino)ethanol] the inhibition at 1 µM [1, 4] was 100%, the inhibition at 1 µM (kinase domain of cKIT; [4]) was 100% and the inhibition at 1 µM (kinase domain of PDGFRβ; [4]) was 81%. It also gave an inhibition at 1 µM ([3]; compounds of Table 3) of 100%.
`NC(=O)c1cc(Oc2ccc3nc(NCC4CCCCC4)oc3c2)ccn1` [Compound 69, 4-[2-(Cyclohexylmethyl-amino)-benzooxazol-6-yloxy]-pyridine-2-carboxylic acid amide] showed an inhibition at 1 µM ([1]; tested at about 1 μM) of 100%, an inhibition at 1 µM (kinase domain of cKIT; tested at about 1 μM) of 0% and an inhibition at 1 µM (kinase domain of PDGFRβ; tested at about 1 μM) of 0%. It also gave an inhibition at 1 µM ([3]; MNFS60 cells) of 0%.
